Test results reported in patent publication US20240158370A1, “CK1 alpha AND DUAL CK1 alpha / GSPT1 DEGRADING COMPOUNDS” (Innovo Therapeutics, Inc., priority 2022, published 2024).

Key:
CK1α = biological target: T1, CK1α (Homo sapiens, UniProt P48729+Q96SW2); experiment: HiBiT degradation assay, CK1α, Procedure A; format: cell-based; settings: six hours incubation
T1 construct: CSNK1A1-HiBit KI HEK293(LgBit) Cells; host or cells: HEK293(LgBit) knock-in cells
In short: (§1)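 Six-hour treatment at 37° C, ten doses between 10 μM and 0.005 μM, then HiBiT lytic luminescence. Fitted DC50 and Ymin.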

GSPT1 = GSPT1 (Homo sapiens, UniProt P15170+Q96SW2); experiment: HiBiT degradation assay, GSPT1, Procedure A; format: cell-based; parameters: HiBit-GSPT1 KI HEK293(LgBit) Cells; host or cells: HEK293(LgBit) knock-in cells; settings: six hours incubation
GSPT1, sequence (P15170 whole entry): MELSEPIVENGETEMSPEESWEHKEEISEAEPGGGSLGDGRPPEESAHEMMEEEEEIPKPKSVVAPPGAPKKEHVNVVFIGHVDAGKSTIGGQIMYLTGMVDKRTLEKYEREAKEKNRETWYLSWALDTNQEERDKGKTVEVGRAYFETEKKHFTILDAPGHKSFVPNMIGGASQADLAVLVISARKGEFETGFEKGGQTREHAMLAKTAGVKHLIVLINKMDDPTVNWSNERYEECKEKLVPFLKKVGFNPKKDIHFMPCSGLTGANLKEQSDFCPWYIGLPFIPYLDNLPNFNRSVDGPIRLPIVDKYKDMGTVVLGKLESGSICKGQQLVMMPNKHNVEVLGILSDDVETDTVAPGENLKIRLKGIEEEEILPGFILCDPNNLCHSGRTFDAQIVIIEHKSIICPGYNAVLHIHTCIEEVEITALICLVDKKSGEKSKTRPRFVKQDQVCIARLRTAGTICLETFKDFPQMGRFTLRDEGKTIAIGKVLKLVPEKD
GSPT1, sequence (Q96SW2 whole entry): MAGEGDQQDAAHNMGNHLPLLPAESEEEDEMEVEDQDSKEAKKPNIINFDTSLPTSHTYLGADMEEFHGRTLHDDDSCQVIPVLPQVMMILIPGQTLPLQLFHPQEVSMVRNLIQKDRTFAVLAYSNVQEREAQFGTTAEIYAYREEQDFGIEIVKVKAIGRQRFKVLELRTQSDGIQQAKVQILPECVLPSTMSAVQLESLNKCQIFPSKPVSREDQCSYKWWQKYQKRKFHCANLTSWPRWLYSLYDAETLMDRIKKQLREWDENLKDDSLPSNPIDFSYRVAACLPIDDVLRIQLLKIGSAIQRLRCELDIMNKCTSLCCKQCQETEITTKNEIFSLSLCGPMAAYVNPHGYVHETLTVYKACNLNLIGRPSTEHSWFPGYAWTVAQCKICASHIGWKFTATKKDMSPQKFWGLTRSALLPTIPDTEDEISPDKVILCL
GSPT1, sequence (Q16531 whole entry partner): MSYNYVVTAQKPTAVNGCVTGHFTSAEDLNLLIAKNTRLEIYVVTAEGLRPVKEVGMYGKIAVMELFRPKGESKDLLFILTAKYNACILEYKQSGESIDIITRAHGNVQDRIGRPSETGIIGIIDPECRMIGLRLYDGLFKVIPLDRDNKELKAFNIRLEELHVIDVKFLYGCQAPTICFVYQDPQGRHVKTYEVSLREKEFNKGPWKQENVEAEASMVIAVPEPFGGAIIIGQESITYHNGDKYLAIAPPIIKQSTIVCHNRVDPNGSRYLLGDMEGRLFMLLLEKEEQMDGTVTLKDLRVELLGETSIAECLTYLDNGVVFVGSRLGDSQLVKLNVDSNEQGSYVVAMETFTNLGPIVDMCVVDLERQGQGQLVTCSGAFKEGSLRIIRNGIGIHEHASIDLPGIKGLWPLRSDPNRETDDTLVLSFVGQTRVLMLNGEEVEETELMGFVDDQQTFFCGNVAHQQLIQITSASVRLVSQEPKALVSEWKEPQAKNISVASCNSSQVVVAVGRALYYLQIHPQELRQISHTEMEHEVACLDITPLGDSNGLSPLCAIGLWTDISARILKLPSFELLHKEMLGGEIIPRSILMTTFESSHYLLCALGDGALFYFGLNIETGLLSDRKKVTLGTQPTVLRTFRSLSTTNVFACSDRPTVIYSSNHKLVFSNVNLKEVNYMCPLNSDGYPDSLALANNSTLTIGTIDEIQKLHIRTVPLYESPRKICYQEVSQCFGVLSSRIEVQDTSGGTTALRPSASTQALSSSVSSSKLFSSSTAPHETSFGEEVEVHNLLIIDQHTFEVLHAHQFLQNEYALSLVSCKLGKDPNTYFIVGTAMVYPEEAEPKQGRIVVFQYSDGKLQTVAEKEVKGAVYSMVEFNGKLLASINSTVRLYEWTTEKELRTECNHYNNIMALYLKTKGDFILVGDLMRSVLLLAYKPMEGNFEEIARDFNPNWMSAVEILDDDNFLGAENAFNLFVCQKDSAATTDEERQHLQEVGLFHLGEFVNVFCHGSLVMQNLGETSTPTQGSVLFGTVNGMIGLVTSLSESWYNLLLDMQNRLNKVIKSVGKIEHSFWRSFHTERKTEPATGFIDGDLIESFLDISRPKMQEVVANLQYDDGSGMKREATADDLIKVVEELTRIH
In short: as §1

T1 sequence (P48729 whole entry): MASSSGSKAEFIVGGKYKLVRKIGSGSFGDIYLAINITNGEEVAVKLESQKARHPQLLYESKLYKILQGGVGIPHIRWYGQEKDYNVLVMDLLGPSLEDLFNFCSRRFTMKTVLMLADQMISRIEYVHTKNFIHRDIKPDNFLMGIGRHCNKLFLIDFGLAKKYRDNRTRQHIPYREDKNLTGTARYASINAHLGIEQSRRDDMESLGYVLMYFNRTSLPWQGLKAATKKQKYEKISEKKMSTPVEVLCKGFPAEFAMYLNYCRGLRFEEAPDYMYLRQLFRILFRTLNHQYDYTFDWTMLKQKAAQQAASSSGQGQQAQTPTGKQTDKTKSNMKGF
T1 sequence (Q96SW2 whole entry): as the sequence (Q96SW2 whole entry) above
T1 sequence (Q16531 whole entry partner): as the sequence (Q16531 whole entry partner) above

CK1α Ymin (CK1α) | DC50 (CK1α) [nM] | DC50 (GSPT1) [nM] | GSPT1 Ymin (GSPT1) | Compound
C (C = 0-10% remaining) | < 25 | < 25 | F (F = >75-100% remaining) | Cn1cnc(-c2ccc3c(c2)CN(C2CCC(=O)NC2=O)C3=O)c1-c1ccc(N2CCOCC2)cc1 (stereo not shown) [Example 353]
E (E = >25-75% remaining) | < 25 | < 25 | F (F = >75-100% remaining) | Cn1cnc(-c2ccc3c(c2)CN(C2CCC(=O)NC2=O)C3=O)c1-c1ccc(S(=O)(=O)N2CCCC2)cc1 (stereo not shown) [Example 354]
E (E = >25-75% remaining) | < 25 | ≥ 25 | F (F = >75-100% remaining) | CN1CCN(c2ccc(-c3c(-c4ccc5c(c4)CN(C4CCC(=O)NC4=O)C5=O)ncn3C)cc2)CC1 (stereo not shown) [Example 355]
F (F = >75-100% remaining) | ≥ 25 | ≥ 25 | F (F = >75-100% remaining) | Cn1cnc(-c2ccc3c(c2)CN(C2CCC(=O)NC2=O)C3=O)c1-c1ccc(NC(=O)c2ccccc2)cc1 (stereo not shown) [Example 356]
C (C = 0-10% remaining) | < 25 | ≥ 25 | F (F = >75-100% remaining) | CN1CCN(C(=O)c2cccc(-c3c(-c4ccc5c(c4)CN(C4CCC(=O)NC4=O)C5=O)ncn3C)c2)CC1 (stereo not shown) [Example 357]
E (E = >25-75% remaining) | < 25 | ≥ 25 | F (F = >75-100% remaining) | COc1ccc(-c2c(-c3ccc4c(c3)CN(C3CCC(=O)NC3=O)C4=O)ncn2C)cc1OCc1ccccc1 (stereo not shown) [Example 358]
E (E = >25-75% remaining) | < 25 | ≥ 25 | F (F = >75-100% remaining) | Cn1cnc(-c2ccc3c(c2)CN(C2CCC(=O)NC2=O)C3=O)c1-c1ccc(OCCCN2CCOCC2)cc1 (stereo not shown) [Example 359]
D (D = >10- 25% remaining) | < 25 | ≥ 25 | F (F = >75-100% remaining) | Cn1ncc(-c2ccc3c(c2)CN(C2CCC(=O)NC2=O)C3=O)c1-c1cccnc1 (stereo not shown) [Example 360]
E (E = >25-75% remaining) | < 25 | ≥ 25 | F (F = >75-100% remaining) | Cn1ncc(-c2ccc3c(c2)CN(C2CCC(=O)NC2=O)C3=O)c1-c1ccncc1 (stereo not shown) [Example 361]
E (E = >25-75% remaining) | < 25 | ≥ 25 | F (F = >75-100% remaining) | Cn1ncc(-c2ccc3c(c2)CN(C2CCC(=O)NC2=O)C3=O)c1-c1cncnc1 (stereo not shown) [Example 362]
C (C = 0-10% remaining) | < 25 | < 25 | F (F = >75-100% remaining) | Cn1ccc(-c2c(-c3ccc4c(c3)CN(C3CCC(=O)NC3=O)C4=O)cnn2C)c1 (stereo not shown) [Example 363]
D (D = >10- 25% remaining) | ≥ 25 | ≥ 25 | F (F = >75-100% remaining) | Cc1occc1-c1c(-c2ccc3c(c2)CN(C2CCC(=O)NC2=O)C3=O)cnn1C (stereo not shown) [Example 364]

Continued, molecule first:

Compound | CK1α Ymin (CK1α) | DC50 (CK1α) [nM] | DC50 (GSPT1) [nM] | GSPT1 Ymin (GSPT1)
COc1ncccc1-c1c(-c2ccc3c(c2)CN(C2CCC(=O)NC2=O)C3=O)ncn1C (stereo not shown) [Example 327] | D (D = >10- 25% remaining) | < 25 | < 25 | F (F = >75-100% remaining)
Cn1cnc(-c2ccc3c(c2)CN(C2CCC(=O)NC2=O)C3=O)c1-c1ccn(C)c(=O)c1 (stereo not shown) [Example 328] | D (D = >10- 25% remaining) | ≥ 25 | ≥ 25 | F (F = >75-100% remaining)
COc1ccc(-c2c(-c3ccc4c(c3)CN(C3CCC(=O)NC3=O)C4=O)ncn2C)cn1 (stereo not shown) [Example 329] | C (C = 0-10% remaining) | < 25 | ≥ 25 | E (E = >25-75% remaining)
CC(C)n1cc(-c2c(-c3ccc4c(c3)CN(C3CCC(=O)NC3=O)C4=O)ncn2C)cn1 (stereo not shown) [Example 330] | E (E = >25-75% remaining) | < 25 | ≥ 25 | F (F = >75-100% remaining)
Cn1cnc(-c2ccc3c(c2)CN(C2CCC(=O)NC2=O)C3=O)c1-c1cnn(-c2ccccc2)c1 (stereo not shown) [Example 332] | D (D = >10- 25% remaining) | < 25 | ≥ 25 | F (F = >75-100% remaining)
O=C1CCC(N2Cc3cc(-c4cnn(C(F)(F)F)c4-c4ccccc4)ccc3C2=O)C(=O)N1 (stereo not shown) [Example 333, 3-(1-oxo-5-(5-phenyl-1-(trifluoromethyl)-1H-pyrazol-4-yl)isoindolin-2-yl)piperidine-2,6-dione] | E (E = >25-75% remaining) | < 25 | ≥ 25 | E (E = >25-75% remaining)
CC(F)(F)Cn1ncc(-c2ccc3c(c2)CN(C2CCC(=O)NC2=O)C3=O)c1-c1ccccc1 (stereo not shown) [Example 336, 3-(5-(1-(2,2-difluoropropyl)-5-phenyl-1H-pyrazol-4-yl)-1-oxoisoindolin-2-yl)piperidine-2,6-dione] | D (D = >10- 25% remaining) | ≥ 25 | ≥ 25 | F (F = >75-100% remaining)
O=C1CCC(N2Cc3cc(-c4cc(-c5ccccc5)n(C(F)F)n4)ccc3C2=O)C(=O)N1 (stereo not shown) [Example 337, 3-(5-(1-(difluoromethyl)-5-phenyl-1H-pyrazol-3-yl)-1-oxoisoindolin-2-yl)piperidine-2,6-dione] | D (D = >10- 25% remaining) | ≥ 25 | ≥ 25 | F (F = >75-100% remaining)
Cc1c(-c2ccc3c(c2)CN(C2CCC(=O)NC2=O)C3=O)nc(-c2ccccc2)n1C (stereo not shown) [Example 338, 3-(5-(1,5-dimethyl-2-phenyl-1H-imidazol-4-yl)-1-oxoisoindolin-2-yl)piperidine-2,6-dione] | C (C = 0-10% remaining) | < 25 | ≥ 25 | F (F = >75-100% remaining)
Cn1ncc(-c2ccc3c(c2)CN(C2CCC(=O)NC2=O)C3=O)c1-c1ccc(OC(F)(F)F)cc1 (stereo not shown) [Example 340, 3-(5-(1-methyl-5-(4-(trifluoromethoxy)phenyl)-1H-pyrazol-4-yl)-1-oxoisoindolin-2-yl)piperidine-2,6-dione] | E (E = >25-75% remaining) | < 25 | < 25 | F (F = >75-100% remaining)
COc1ccc(-c2nn(C(F)F)cc2-c2ccc3c(c2)CN(C2CCC(=O)NC2=O)C3=O)cc1F (stereo not shown) [Example 341, 3-(5-(1-(difluoromethyl)-3-(3-fluoro-4-methoxyphenyl)-1H-pyrazol-4-yl)-1-oxoisoindolin-2-yl)piperidine-2,6-dione] | E (E = >25-75% remaining) | < 25 | ≥ 25 | F (F = >75-100% remaining)
Cn1cnc(-c2ccc3c(c2)CN(C2CCC(=O)NC2=O)C3=O)c1-c1ccc(C#N)s1 (stereo not shown) [Example 342] | F (F = >75-100% remaining) | ≥ 25 | ≥ 25 | F (F = >75-100% remaining)
Cn1cnc(-c2ccc3c(c2)CN(C2CCC(=O)NC2=O)C3=O)c1-c1cccc(N)c1 (stereo not shown) [Example 343] | C (C = 0-10% remaining) | < 25 | ≥ 25 | F (F = >75-100% remaining)
Cc1ccsc1-c1c(-c2ccc3c(c2)CN(C2CCC(=O)NC2=O)C3=O)ncn1C (stereo not shown) [Example 344] | E (E = >25-75% remaining) | < 25 | ≥ 25 | F (F = >75-100% remaining)
COc1cccc(-c2c(-c3ccc4c(c3)CN(C3CCC(=O)NC3=O)C4=O)ncn2C)c1 (stereo not shown) [Example 345] | E (E = >25-75% remaining) | < 25 | ≥ 25 | F (F = >75-100% remaining)
Cn1cnc(-c2ccc3c(c2)CN(C2CCC(=O)NC2=O)C3=O)c1-c1ccc2[nH]ccc2c1 (stereo not shown) [Example 346] | D (D = >10- 25% remaining) | < 25 | ≥ 25 | F (F = >75-100% remaining)
Cn1cnc(-c2ccc3c(c2)CN(C2CCC(=O)NC2=O)C3=O)c1-c1ccccc1C1CC1 (stereo not shown) [Example 347] | E (E = >25-75% remaining) | < 25 | ≥ 25 | F (F = >75-100% remaining)
Cn1cnc(-c2ccc3c(c2)CN(C2CCC(=O)NC2=O)C3=O)c1-c1ccsc1Cl (stereo not shown) [Example 348] | E (E = >25-75% remaining) | < 25 | ≥ 25 | F (F = >75-100% remaining)
Cn1cnc(-c2ccc3c(c2)CN(C2CCC(=O)NC2=O)C3=O)c1-c1cccc2c1OCC2 (stereo not shown) [Example 349] | C (C = 0-10% remaining) | < 25 | < 25 | F (F = >75-100% remaining)
Cn1cnc(-c2ccc3c(c2)CN(C2CCC(=O)NC2=O)C3=O)c1-c1cc(F)ccc1Cl (stereo not shown) [Example 350] | D (D = >10- 25% remaining) | ≥ 25 | ≥ 25 | F (F = >75-100% remaining)
COc1cc(-c2c(-c3ccc4c(c3)CN(C3CCC(=O)NC3=O)C4=O)ncn2C)ccc1Cl (stereo not shown) [Example 351] | D (D = >10- 25% remaining) | ≥ 25 | ≥ 25 | F (F = >75-100% remaining)
Cn1cnc(-c2ccc3c(c2)CN(C2CCC(=O)NC2=O)C3=O)c1-c1cccc(-c2cccnc2)c1 (stereo not shown) [Example 352] | C (C = 0-10% remaining) | < 25 | ≥ 25 | F (F = >75-100% remaining)
